Test results reported in ChEMBL document CHEMBL1145582, “4,5-Disubstituted oxazolidinones: High affinity molecular effectors of RNA function” (Bioorg Med Chem Lett, 2008).
Activity calls are given as the source filed them. No cut-off for these calls is given here.

Legend:
[1] = molecular target: T1, Guanyl-specific ribonuclease T1 (Aspergillus oryzae (strain ATCC 42149 / RIB 40)) (UniProt P00651); experiment: Decrease in Aspergillus oryzae RNase T1 cleavage in AM1A T box antiterminator model RNA
T1 sequence (whole entry): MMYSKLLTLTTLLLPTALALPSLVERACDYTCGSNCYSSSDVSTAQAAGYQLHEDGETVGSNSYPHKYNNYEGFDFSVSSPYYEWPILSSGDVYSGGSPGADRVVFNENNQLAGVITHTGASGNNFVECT

[2] = Binding affinity at 3'-Fl-18-Rh-C11U T box antiterminator model RNA by FRET assay; set-up: species or system Bacillus subtilis
[3] = Binding affinity at RNAs 3'-Fl-18-Rh-AM1A T box antiterminator model RNA by FRET assay; set-up: species or system Bacillus subtilis
[4] = tested on: Bacillus subtilis; experiment: Reduction of Bacillus subtilis tRNA-glycine-dependent antitermination at 1.3 mM in presence on RNA polymerase; set-up: scale not given: the % may be the effect or the level left
[5] = molecular target: T1, Guanyl-specific ribonuclease T1 (Aspergillus oryzae (strain ATCC 42149 / RIB 40)); experiment: Reduction of Aspergillus oryzae RNase T1 cleavage in position 7 of AM1A T box antiterminator model RNA; set-up: scale not given: the % may be the effect or the level left
[6] = molecular target: T1, Guanyl-specific ribonuclease T1 (Aspergillus oryzae (strain ATCC 42149 / RIB 40)); experiment: Reduction of Aspergillus oryzae RNase T1 cleavage in position 9 of AM1A T box antiterminator model RNA; set-up: scale not given: the % may be the effect or the level left
[7] = Binding affinity at AM1A T box antiterminator model RNA in presence of cognate tRNA; set-up: species or system Bacillus subtilis
[8] = molecular target: T1, Guanyl-specific ribonuclease T1 (Aspergillus oryzae (strain ATCC 42149 / RIB 40)); experiment: Reduction of Aspergillus oryzae RNase T1 induced cleavage at position 8 of AM1A T box antiterminator model RNA; set-up: scale not given: the % may be the effect or the level left
[9] = molecular target: T1, Guanyl-specific ribonuclease T1 (Aspergillus oryzae (strain ATCC 42149 / RIB 40)); experiment: Enhancement of Aspergillus oryzae RNase T1 cleavage in position 15 of AM1A T box antiterminator model RNA

CC(=O)c1ccc(NC(=O)OC[C@H]2OC(=O)N[C@@H]2CN2CCN(c3ccccc3)CC2)cc1
Activity [1]: Active | Kd [2]: < 1 µM | Kd [3]: 0.9 µM

O=C(Cc1ccccc1)OC[C@H]1OC(=O)N[C@@H]1Cc1ccccc1
Kd [2]: 125 µM | Kd [3]: 9 µM

CN(C[C@H]1NC(=O)O[C@@H]1COC(=O)Cc1ccccc1)c1ccccc1
Kd [2]: 122 µM | Kd [3]: 61 µM

CN(CCc1ccccc1)C[C@H]1NC(=O)O[C@@H]1COC(=O)Cc1ccccc1
Kd [3]: 114 µM

O=C(Cc1ccccc1)OC[C@H]1OC(=O)N[C@@H]1CN1CCN(c2ccccc2)CC1
Activity [4]: 40% | Activity [5]: 44% | Activity [6]: 57% | Kd [2]: 100 µM | Kd [7]: 64 µM | Kd [3]: 13 µM | Activity [8]: 41% | Activity [9]: 70%

O=C(Cc1ccccc1)OC[C@H]1OC(=O)N[C@@H]1CN1CCOCC1
Kd [3]: 42 µM

CCCCCCCC(=O)OC[C@H]1OC(=O)N[C@@H]1CN(C)c1ccccc1
Kd [2]: 4.1 µM | Kd [3]: 6.6 µM
